Patent US4201725A, “Secondary amines” (priority 1974, dated 1980)

Legend:
[1] = system: arterial pressure and nictitating membrane (norepinephrine); experiment: Influence on peripheral noradrenergic phenomena (norepinephrine, anaesthetized cat); conditions: cat, i.v.
electrocardiogram = experiment: Effect on the electrocardiogram; type: in vivo; conditions: amantadine: 5 mg/kg injected, dog
[2] = system: cholinergic effects of tremorine; experiment: Anti-tremorine test in vivo; set-up: species or system mice (male, OF1 strain)
Experimental: When injected into mice, tremorine produces peripheral effects i.e. weeping, sweating, salivation and diarrhoea and central effects i.e. tremor and akinesia. Such effects are due to an increase in the amount of intracerebral acetylcholine and serotonine.
[…] Thirty minutes later a dose of 10 mg/kg of tremorine was injected by intraperitoneal route and, at different times after this injection, note was taken of the cholinergic effects on each animal in accordance with the following scale:

[3] = SPERBER et al., J. Amer. Chem. Soc., 71, 3352 (1949); cited from earlier work
in vivo = conditions: mouse, po
[4] = SPERBER et al., J. Amer. Chem. Soc., 71, 3352 (1949); cited from earlier work; remark: listed apart in the source
[5] = system: neuroleptic-induced catatonia; experiment: Inhibition of neuroleptic (prochlorperazine)-induced catatonia (preventive); type: in vivo, rat (male, OFA strain)
Experimental: The blocking of dopaminergic receptors by neuroleptics in the extra-pyramidal system induces catatonia in the rat. Catatonia is differentiated from sedative properties by means of the test used hereabove for reserpine-induced catatonia. The same system of scoring was also employed in the present case.
An oral dose of the compound to be studied in aqueous solution was administered to batches of 10 male rats of the OFA strain weighing about 150 to 200 g.
Three hours after the injection of this latter compound, catatonia was measured. An identical trial was also carried out with control animals which received prochlorperazine but none of the compounds under study.
The scoring system used was that given hereabove for Table I.

monoamine oxidase = experiment: Inhibitory effect on monoamine oxidase
Tremor-inducing action = conditions: 0.031 m mol/kg oral, 30 min, hydrochloride form; for number of animals presenting tremors (denominator of ratio): batches of 10 rats
[6] = system: reserpine-induced catatonia; experiment: Inhibition of reserpine-induced catatonia (preventive, oral compound 30 min before reserpine); type: in vivo, rat (male, OFA strain); conditions: for index of reserpine-induced catatonia (numerator of ratio): 0.031 m mol/kg oral, hydrochloride form
Experimental: After sufficient doses of reserpine have been administered to the rat, a series of symptoms occur, more particularly ptosis, catatonia and a drop in central temperature. These symptoms are caused by the depletion of the intragranular reserve pool of biogenetic amines at the synaptic terminals.
An oral dose of the compound to be studied in aqueous solution was administered to batches of 10 male rats of the OFA strain weighing about 150 to 200 g. Thirty minutes later a dose of 5 mg/kg of reserpine was given by intraperitoneal route. Three hours after the injection of reserpine, the animals were suspended by the four paws to a horizontally stretched wire fixed at 15 cm from the ground. The catatonia animals were those which maintained the position so given for at least 30 seconds. […] The maximum score was therefore 10 per batch. An identical trial was undertaken with control animals which received reserpine but none of the compounds being studied.

SMILES	selectivity ratio (in vivo)	Inhibition of the neuroleptic-induced catatonia ([5]; 6 mg/kg oral)	number of animals presenting tremors (denominator of ratio) (Tremor-inducing action)	ratio of index of reserpine-induced catatonia inhibition to number of animals presenting tremors (Tremor-inducing action)	Inhibition of reserpine-induced catatonia ([6]; 6 mg/kg oral)	index of reserpine-induced catatonia (numerator of ratio) [6]	further results
NC12CC3CC(CC(C3)C1)C2 [Amantadine, 1-amino-adamantane, reference compound]	–	–	–	–	–	–	effect on the nictitating membrane (in words) [1]: stimulates the contractile reactions of the nictitating membrane but does not potentiate the effects of the electric stimulation; potentiation of norepinephrine / peripheral adrenergic effects (in words) [1]: potentiates exogenous norepinephrine from 1 mg/kg; potentiation of norepinephrine / peripheral adrenergic effects (in words) ([1]; listed as amantadine): potentiates the peripheral adrenergic effects; effect on the electrocardiogram (in words) (electrocardiogram): provokes cardiac arrhythmia due to ventricular extrasystoles; antitremorine properties (in words) ([2]; 5 mg/kg Compound 1, 40 mg/kg amantadine): devoid of antitremorine properties; central cholinergic effects (normal and provoked tremor) ([2]; 40 mg/kg oral, identical to the peripheral score of 4): Identical results
CCCCC(N)(CCCC)CCCC [Compound 12, 1,1-Di-n-butyl-n-pentylamine]	25	–	–	–	–	–	spasmolytic activity (in words) [3]: less spasmolytic; toxicity (in words) [4]: more toxic than the corresponding trialkylethylamines
CCCC(CCC)(CCC)NC [Compound 27, N-Methyl-1,1-di-n-propyl-n-butylamine]	16.5	3 (represents 70 to 80% inhibition of catatonia in comparison with the controls)	4	1	4 (represents 100% inhibition of catatonia in comparison with the controls)	4 (represents 100% inhibition of catatonia in comparison with the controls)	inhibitory effects on the monoamine oxidase (in words) (monoamine oxidase): practically devoid of inhibitory effects
CCCC(CCC)(NC)C(C)C [Compound 30, N-Methyl-1-n-propyl-1-isopropyl-n-butylamine]	> 25	3 (represents 70 to 80% inhibition of catatonia in comparison with the controls)	3	1.33	4 (represents 100% inhibition of catatonia in comparison with the controls)	4 (represents 100% inhibition of catatonia in comparison with the controls)	–
C=CCC(CCC)(CCC)NC [Compound 32, N-Methyl-1-n-propyl-1-allyl-n-butylamine]	–	–	0	3/0	–	3 (represents 70 to 80% inhibition of catatonia in comparison with the controls)	Inhibition of the neuroleptic-induced catatonia ([5]; 5 mg/kg oral): 2 (represents 50% inhibition of catatonia in comparison with the controls); Inhibition of reserpine-induced catatonia ([6]; 5 mg/kg oral): 2 (represents 50% inhibition of catatonia in comparison with the controls)
C#CCNC(CCC)(CCC)CCC [Compound 36, N-Propargyl-1,1-di-n-propyl-n-butylamine]	> 25	4 (represents 100% inhibition of catatonia in comparison with the controls)	5	0.60	1 (represents 20 to 30% inhibition of catatonia in comparison with the controls)	3 (represents 70 to 80% inhibition of catatonia in comparison with the controls)	–
